The values that follow come from ChEMBL document CHEMBL1132933, “Protease inhibitors: synthesis and QSAR study of novel classes of nonbasic thrombin inhibitors incorporating sulfonylguanidine and O-methylsulfonylisourea moieties at P1” (J Med Chem, 2000).

In general, Ki refers to a dissociation constant, usually derived from enzyme kinetics or from competition with a known ligand.

The target of one assay is Trypsin (Homo sapiens, UniProt P07477+P07478+P35030). In words: Inhibitory activity against human trypsin (using Chromozym TH as the substrate). In kind it is protein assay.
In another assay the target is Prothrombin (Homo sapiens, UniProt P00734). In words: Inhibitory activity against human thrombin (using Chromozym TH as the substrate).

In the case of `Cc1ccc(S(=O)(=O)NC(=O)NCCC(=O)N[C@@H](Cc2c[nH]cn2)C(=O)Nc2ccc(S(=O)(=O)NN=C(N)N)cc2)cc1`, the Ki worked out at 1390 nM on Trypsin and 10 nM at Prothrombin.
The matching figures for `COc1ccc(S(=O)(=O)N=C(N)N)cc1N`: 1080 nM and 103 nM.
The matching figures for `N=C(N)NS(=O)(=O)c1cccs1`: 1320 nM and 185 nM.
In the case of `N=C(N)NNS(=O)(=O)c1ccc(Br)cc1`, the Ki on Trypsin is 1215 nM; at Prothrombin it was 203 nM.
Taken in the same sequence, the figures for `N=C(N)NS(=O)(=O)c1cccc(C(=O)O)c1` were 1500 nM and 121 nM.
`N=C(N)NNS(=O)(=O)c1c(F)c(F)c(F)c(F)c1F`: the Ki turned out to be 1350 nM at Trypsin and 123 nM on Prothrombin.
Taken in the same sequence, the figures for `Cc1ccc(S(=O)(=O)NC(=O)NCC(=O)N[C@@H](Cc2c[nH]cn2)C(=O)Nc2ccc(S(=O)(=O)N=C(N)N)cc2)cc1` were 1455 nM and 18 nM.
Taken in the same sequence, the figures for `N=C(N)NNS(=O)(=O)c1ccc(F)cc1` were 1025 nM and 225 nM.
`COC(=N)NS(=O)(=O)c1ccc(/N=N/c2ccc(N(C)C)cc2)cc1`: the Ki at Trypsin worked out at 1350 nM; at Prothrombin, 169 nM.
The matching figures for `Cc1ccc(S(=O)(=O)N=C(N)N)cc1`: 1810 nM and 290 nM.
Taken in the same sequence, the figures for `N=C(N)NS(=O)(=O)c1ccccc1C(=O)O` were 1445 nM and 240 nM.
On to `N=C(N)NNS(=O)(=O)c1cc(Cl)cc(Cl)c1O`, for which the Ki was found to be 1100 nM on Trypsin and 98 nM on Prothrombin.
On to `COC(=N)NS(=O)(=O)c1ccc(NC(C)=O)cc1`, for which the figures for the Ki on Trypsin and at Prothrombin were 1345 nM and 202 nM, respectively.
The matching figures for `N=C(N)NS(=O)(=O)c1ccc(C(=N)N)cc1`: 450 nM and 300 nM.
The matching figures for `N=C(N)NS(=O)(=O)c1ccccc1[N+](=O)[O-]`: 1850 nM and 320 nM.
Taken in the same sequence, the figures for `N=C(N)NNS(=O)(=O)c1c(Br)c(Br)c(Br)c(Br)c1C(=O)O` were 1200 nM and 213 nM.
As to `N=C(N)NS(=O)(=O)c1cccc(N)c1`, the Ki at Trypsin was 1145 nM; on Prothrombin, 107 nM.
Taken in the same sequence, the figures for `N=C(N)NS(=O)(=O)C(F)(F)F` were 1275 nM and 890 nM.
The matching figures for `Cc1ccc(S(=O)(=O)NC(=O)N[C@H](Cc2ccccc2)C(=O)Nc2ccc(S(=O)(=O)NN=C(N)N)cc2)cc1`: 1340 nM and 44 nM.
For the molecule `N=C(N)NNS(=O)(=O)c1ccc(NC(=O)C2CCCN2C(=O)[C@H](Cc2ccccc2)NC(=O)OCc2ccccc2)cc1` (stereo partly specified), the Ki at Trypsin was 1400 nM.
On to `N=C(N)NNS(=O)(=O)c1ccccc1C(=O)O`, for which the values for the Ki at Trypsin and at Prothrombin were 1400 nM and 205 nM, respectively.
Taken in the same sequence, the figures for `COC(=N)NS(=O)(=O)c1ccc(N)cc1` were 1580 nM and 106 nM.
The matching figures for `COC(=N)NS(=O)(=O)c1ccc(Br)cc1`: 1370 nM and 265 nM.
The matching figures for `COC(=N)NS(=O)(=O)c1ccc2ccccc2c1`: 1445 nM and 147 nM.
Turning to `N=C(N)NS(=O)(=O)c1ccc(Br)cc1`, the inhibition constant Ki turned out to be 1230 nM on Trypsin and 220 nM on Prothrombin.
Taken in the same sequence, the figures for `COC(=N)NS(=O)(=O)c1ccc(NC(=O)[C@@H](Cc2ccccc2)NC(=O)NS(=O)(=O)c2ccc(C)cc2)cc1` were 1320 nM and 60 nM.
The matching figures for `COC(=N)NS(=O)(=O)c1ccc(OC)cc1`: 1460 nM and 276 nM.
The matching figures for `N=C(N)NNS(=O)(=O)c1cccc2ccccc12`: 1200 nM and 125 nM.
Turning to `Cc1ccc(S(=O)(=O)NC(=O)N2CCCC2C(=O)Nc2ccc(S(=O)(=O)N=C(N)N)cc2)cc1` (stereo unspecified), the Ki amounted to 1445 nM at Trypsin and 48 nM at Prothrombin.
Consider `Cc1ccc(S(=O)(=O)NN=C(N)N)cc1`, for which the Ki at Trypsin came out at 1775 nM; at Prothrombin, 270 nM.
The matching figures for `COC(=N)NS(=O)(=O)c1cc(Cl)cc(Cl)c1O`: 1550 nM and 170 nM.
For `COC(=N)NS(=O)(=O)c1ccc(C)cc1`, the Ki is 2150 nM on Trypsin and 328 nM at Prothrombin.
Taken in the same sequence, the figures for `N=C(N)NS(=O)(=O)c1ccc(F)cc1` were 1090 nM and 240 nM.
Taken in the same sequence, the figures for `CC(=O)Nc1ccc(S(=O)(=O)N=C(N)N)cc1` were 1070 nM and 195 nM.
The matching figures for `N=C(N)NS(=O)(=O)c1c(Br)c(Br)c(Br)c(Br)c1C(=O)O`: 1250 nM and 225 nM.
In the case of `N=C(N)NS(=O)(=O)c1ccc(NC(=O)[C@@H](Cc2ccccc2)NC(=O)OCc2ccccc2)cc1`, the Ki on Trypsin amounted to 1285 nM; on Prothrombin it was 54 nM.
Taken in the same sequence, the figures for `Cc1cc(C)c(S(=O)(=O)NN=C(N)N)c(C)c1` were 1100 nM and 219 nM.
Taken in the same sequence, the figures for `COC(=N)NS(=O)(=O)c1cccc([N+](=O)[O-])c1` were 1375 nM and 213 nM.
With `COC(=N)NS(=O)(=O)c1ccccc1C(=O)O`, the Ki amounted to 1550 nM at Trypsin and 325 nM on Prothrombin.
On to `COC(=N)NS(=O)(=O)c1ccc(NC(=O)CNC(=O)[C@@H]2CCCN2C(=O)NS(=O)(=O)c2ccc(C)cc2)cc1`, for which the Ki at Trypsin came out at 1540 nM; on Prothrombin, 27 nM.
Turning to `N=C(N)NS(=O)(=O)c1ccc([N+](=O)[O-])c(Cl)c1`, the Ki was 990 nM at Trypsin and 160 nM at Prothrombin.
Taken in the same sequence, the figures for `COC(=N)NS(=O)(=O)c1ccc([N+](=O)[O-])c(Cl)c1` were 1200 nM and 177 nM.
Taken in the same sequence, the figures for `N=C(N)NS(=O)(=O)c1ccc(I)cc1` were 1350 nM and 210 nM.
For the molecule `N=C(N)NNS(=O)(=O)c1ccccc1[N+](=O)[O-]`, the Ki at Trypsin stood at 1800 nM; on Prothrombin it was 324 nM.
The matching figures for `CN(C)c1ccc(/N=N/c2ccc(S(=O)(=O)NN=C(N)N)cc2)cc1`: 1355 nM and 139 nM.
With `N=C(N)NS(=O)(=O)c1ccc2ccccc2c1`, the inhibition constant Ki on Trypsin came to 1300 nM; at Prothrombin, 132 nM.
Turning to `COC(=N)NS(=O)(=O)c1ccc(F)cc1`, the Ki is 1200 nM at Trypsin and 280 nM on Prothrombin.
The matching figures for `COC(=N)NS(=O)(=O)CC12CCC(CC1=O)C2(C)C` (stereo unspecified): 1075 nM and 336 nM.
`COc1ccc(S(=O)(=O)NN=C(N)N)cc1N`: the Ki on Trypsin was 1100 nM; on Prothrombin, 219 nM.
The matching figures for `N=C(N)NNS(=O)(=O)c1ccc(Cl)cc1`: 1100 nM and 212 nM.
Taken in the same sequence, the figures for `COC(=N)NS(=O)(=O)C(F)(F)C(F)(F)C(F)(F)C(F)(F)F` were 2180 nM and 565 nM.
The matching figures for `COC(=N)NS(=O)(=O)c1ccc(Cl)cc1`: 1325 nM and 266 nM.
`N=C(N)NNS(=O)(=O)c1ccc(C(=O)O)cc1`: the Ki turned out to be 1335 nM on Trypsin and 97 nM at Prothrombin.
As for `N=C(N)NS(=O)(=O)c1ccc(Cl)cc1`, the Ki at Trypsin came out at 1170 nM; at Prothrombin it was 225 nM.
The matching figures for `N=C(N)NNS(=O)(=O)c1cccc(N)c1`: 1400 nM and 88 nM.
For the molecule `COC(=N)NS(=O)(=O)c1cccc(C(=O)O)c1`, the inhibition constant Ki at Trypsin was found to be 1595 nM; at Prothrombin, 197 nM.
The matching figures for `CN(C)c1cccc2c(S(=O)(=O)NN=C(N)N)cccc12`: 1200 nM and 130 nM.
Taken in the same sequence, the figures for `CC1(C)C2CCC1(CS(=O)(=O)N=C(N)N)C(=O)C2` (stereo unspecified) were 980 nM and 320 nM.
Taken in the same sequence, the figures for `CC(=O)Nc1ccc(S(=O)(=O)NN=C(N)N)cc1` were 1025 nM and 172 nM.
Turning to `N=C(N)NNS(=O)(=O)c1ccc([N+](=O)[O-])c(Cl)c1`, the Ki on Trypsin was found to be 1010 nM; at Prothrombin, 154 nM.
Taken in the same sequence, the figures for `Cc1ccc(S(=O)(=O)NC(=O)N[C@@H](Cc2ccccc2)C(=O)N2CCCC2C(=O)Nc2ccc(S(=O)(=O)N=C(N)N)cc2)cc1` (stereo partly specified) were 1315 nM and 12 nM.
With `Cc1ccc(S(=O)(=O)NC(=O)N2CCCC2C(=O)Nc2ccc(S(=O)(=O)NN=C(N)N)cc2)cc1` (stereo unspecified), the Ki at Trypsin was 1530 nM; on Prothrombin it was 43 nM.
Taken in the same sequence, the figures for `COC(=N)NS(=O)(=O)c1ccc(NC(=O)[C@H](Cc2c[nH]cn2)NC(=O)CCNC(=O)NS(=O)(=O)c2ccc(C)cc2)cc1` were 1420 nM and 19 nM.
For the molecule `CN(C)c1ccc(/N=N/c2ccc(S(=O)(=O)N=C(N)N)cc2)cc1`, the Ki stood at 1245 nM on Trypsin and 134 nM at Prothrombin.
For `COC(=N)NS(=O)(=O)c1ccc(NC(=O)C2CCCN2C(=O)[C@H](Cc2ccccc2)NC(=O)NS(=O)(=O)c2ccc(C)cc2)cc1` (stereo partly specified), the Ki at Trypsin is 1420 nM; on Prothrombin, 18 nM.
Taken in the same sequence, the figures for `COC(=N)NS(=O)(=O)c1ccc(NC(=O)C2CCCN2C(=O)NS(=O)(=O)c2ccc(C)cc2)cc1` (stereo unspecified) were 1500 nM and 63 nM.
In turn, `N=C(N)NCCCNC(=O)[C@@H]1CCCCN1C(=O)C(CC1CCCCC1)NCC(=O)O` (stereo partly specified) gave an inhibition constant (Ki) at Trypsin of 540 nM.
Regarding `COc1ccc(S(=O)(=O)N=C(N)N)cc1`, the Ki worked out at 1320 nM at Trypsin and 240 nM at Prothrombin.
For `COC(=N)NS(=O)(=O)c1cccs1`, the Ki worked out at 1350 nM on Trypsin and 213 nM at Prothrombin.
For the molecule `N=C(N)NS(=O)(=O)c1ccc([N+](=O)[O-])cc1`, the values for the Ki at Trypsin and at Prothrombin were 975 nM and 180 nM, respectively.
Taken in the same sequence, the figures for `N=C(N)NNS(=O)(=O)c1ccc(N)cc1` were 1425 nM and 91 nM.
With `CN(C)S(=O)(=O)N=C(N)N`, on Trypsin, the inhibition constant Ki stood at 2890 nM.
